Data: patent US12172965B2, “Drug conjugate comprising quinoline derivatives” (UNIVERSITE PARIS-SACLAY, priority 2018, dated 2024)
pIC50: −log10 of the molar value. Read-outs that look alike come from different tables or passages of the source. Each block holds one compound with its values, some of them ahead of it.

Legend:
cell line HCT116 = settings: molecules 4f/4j and 4g/4k of Alami et al. J. Med. Chem. 2019; cited from earlier work
MDA-MB-231 cell line = settings: published by Chen et al.; read-out: IC50 over the MDA-MB-231 cell line; cited from earlier work
[1] = tested on: Mia-Paca-2 (pancreatic tumour); assay: Antiproliferative activity (IC50), CellTiter Glo, Mia-Paca-2; format: cell-based
From the text: (§1) The IC50 (as per accepted terminology) activities of the compounds according to the invention 4-((3-amino-4-methoxyphenyl)(methyl)amino) quinoline-2-carbonitrile (ICQN-1); 5-(5-((2-cyanoquinolin-4-yl)(methyl)amino)-2-methoxyphenyl)-N-hydroxypent-4-ynamide (ICQN-2); and (E)-3-(5-((2-cyanoquinolin-4-yl)(methyl)amino)-2-methoxyphenyl)-N-hydroxyacrylamide (ICQN-3) were compared with compounds of the prior art and with a commercial and clinical reference compound, in particular MMAE (monomethylauristatin E). The IC50 activities were measured on various different cancer cell lines HCT116 (colorectal tumour), A549 (non-small cell lung cancer), NCI-N87 (gastric tumour), Mia-Paca-2 (pancreatic tumour), K562R (chronic myeloid leukemia), SKOV3 (ovarian tumour), SKBr3 (breast tumour, Her2 overexpression), MCF7 (breast tumour) and MDA-MB231 (breast tumour).
(§2) The cancer cell lines were obtained from the American Culture Collection (ATCC, Rockville, MD) or from the German collection of microorganisms and cell cultures of the Leibniz Institute (DSMZ, Braunschweig-Germany) or from the European collection of cell cultures (ECACC, England). The cancer cell lines were cultured according to the supplier's instructions.
(§3) The A549 lung carcinoma cells, K562R myeloid leukemia cells, and the NCI-N87 gastric carcinoma cells were cultured in Gibco Roswell Park Memorial Institute (RPMI) 1640 medium supplemented with 10% foetal calf serum (FCS) and 1% glutamine. The Mia-Paca2 carcinoma cells were cultured in Gibco Dulbecco's Modified Eagle Medium (DMEM) supplemented with 10% foetal calf serum (FCS) and 1% glutamine.
(§4) The cells were counted using a Vi-cell XR (Beckman Coulter) and the cell viability was assessed by using 0.25% trypan blue dye exclusion assay. The cells were tested for the presence of mycoplasmas prior to the experiments with the Mycoplasma PCR detection kit (Applied Biological Materials Inc., Canada) according to the manufacturer's instructions, and only mycoplasma-free cells were used for the study. The cell lines were maintained at 37° C. in a humidified atmosphere containing 5% CO2.
(§5) After 24 hours of culturing, the cells were treated with the tested compounds at 10 different final concentrations. Each concentration was obtained from serial dilutions in culture medium starting from the stock solution. The control cells were treated with the carrier. The experiments were carried out in triplicate.
(§6) The measurements were performed after 72 hours of treatment using the CellTiter Glo assay (Promega) which makes it possible to measure through bioluminescence (quantification of adenosine triphosphate—ATP) the number of living cells, by using a PolarStar Omega microplate reader (BMG-Labtech).
(§7) The dose-response curves were plotted with the Graph Prism software application and the IC50 values were calculated using the Graph Prism software based on polynomial curves (four or five parameter logistic equations).

[2] = tested on: SKBr3 (breast tumour, Her2 overexpression); assay: Antiproliferative activity (IC50), CellTiter Glo, SKBr3; format: cell-based, human
From the text: as §1, §2
(§8) The HCT-116 human colorectal carcinoma, SK-BR3 breast carcinoma, and SK-OV-3 ovarian carcinoma cells were cultured in Gibco McCoy's 5A medium supplemented with 10% foetal calf serum (FCS) and 1% glutamine.
as §4, §5, §6, §7

[3] = tested on: K562R (chronic myeloid leukemia); assay: Antiproliferative activity (IC50), CellTiter Glo, K562R; format: cell-based
From the text: as §1, §2, §3, §4, §5, §6, §7
The K562R (chronic myeloid leukemia) cells have an MDR profile that allows them to be resistant to several chemotherapeutic compounds including the reference compound MMAE.

NCI-N87 (gastric tumour) = assay: Antiproliferative activity (IC50), CellTiter Glo, NCI-N87; format: cell-based
From the text: as §1, §2, §3, §4, §5, §6, §7

[4] = tested on: A549 (non-small cell lung cancer); assay: Antiproliferative activity (IC50), CellTiter Glo, A549; format: cell-based; settings: for pIC50: Homo sapiens, A549
From the text: as §1, §2, §3, §4, §5, §6, §7

SKOV3 (ovarian tumour) = assay: Antiproliferative activity (IC50), CellTiter Glo, SKOV3; format: cell-based, human
From the text: as §1, §2, §8, §4, §5, §6, §7

[5] = tested on: HCT116 (colorectal tumour); assay: Antiproliferative activity (IC50), CellTiter Glo, HCT116; format: cell-based, human; settings: for pIC50: Homo sapiens, HCT-116
From the text: as §1, §2, §8, §4, §5, §6, §7

MCF7 (breast tumour) = assay: Antiproliferative activity (IC50), CellTiter Glo, MCF7; format: cell-based; settings: unconjugated
From the text: as §1, §2
(§9) The breast adenocarcinoma cells MDA-MB231 and MCF7 were cultured in Gibco RPMI 1640 culture medium supplemented with 10% foetal calf serum (FCS) and 1% glutamine.
as §4, §5, §6, §7

[6] = tested on: MDA-MB231 (breast tumour); assay: Antiproliferative activity (IC50), CellTiter Glo, MDA-MB231; format: cell-based; settings: unconjugated
From the text: as §1, §2, §9, §4, §5, §6, §7

[7] = Homo sapiens, MIA PaCa-2, comparative data 13b / ICQN-1, unit inferred, read-out: Mia-Paca2 (antiproliferative activity, Table 3)
[8] = Homo sapiens, SK-BR-3, comparative data 13b / ICQN-1, unit inferred, read-out: SKBr3 (antiproliferative activity, Table 3)
[9] = Homo sapiens, K-562R, comparative data 13b / ICQN-1, unit inferred, read-out: K562R (antiproliferative activity, Table 3)
[10] = Homo sapiens, NCI-N87, comparative data 13b / ICQN-1, unit inferred, read-out: NCI-N87 (antiproliferative activity, Table 3)
[11] = comparative data 13b / ICQN-1, unit inferred, read-out: A549 (antiproliferative activity, Table 3)
[12] = Homo sapiens, SK-OV-3, comparative data 13b / ICQN-1, unit inferred, read-out: SKOV3 (antiproliferative activity, Table 3)
[13] = comparative data 13b / ICQN-1, unit inferred, read-out: HCT116 (antiproliferative activity, Table 3)
[14] = ratio versus MMAE, unconjugated
[15] = resistant cancer cells, MDR profile
[16] = ratio versus prior-art payload ICQO-1

SMILES: C=C(c1ccc2c(c1)c1ccccc1n2C)c1cc(C)nc2ccccc12
pIC50 (cell line HCT116): 8.70

SMILES: C=C(c1ccc2c(c1)c1ccccc1n2C)c1cc(C#N)nc2ccccc12
pIC50 (cell line HCT116): 7.92

pIC50 [1, 7]: 9.04
pIC50 [2, 8]: 8.66
pIC50 [3, 9]: 8.44
pIC50 (NCI-N87 (gastric tumour); [10]): 8.36
pIC50 [4, 11]: 9.17
pIC50 (SKOV3 (ovarian tumour); [12]): 8.89
pIC50 [5, 13]: 8.67
SMILES: COc1ccc(N(C)c2cc(C)nc3ccccc23)cc1N [Compound 13b, reference compound]
pIC50 (MDA-MB-231 cell line): 8.49

pIC50 [1, 7]: 9.31
pIC50 ([1]; Homo sapiens, MIA PaCa-2, free, unconjugated, 72 hours of treatment, read-out: Mia-Paca-2 IC50): 9.31
IC50 ([1]; Homo sapiens, MIA PaCa-2, nM given only in VB118 cells, read-out: Mia-Paca-2 (antiproliferative activity, Table 6)): 0.49 nM
pIC50 [2, 8]: 9.44
pIC50 ([2]; Homo sapiens, SK-BR-3, free, unconjugated, 72 hours of treatment, read-out: SKBr3 IC50): 9.44
IC50 ([2]; Homo sapiens, SK-BR-3, nM given only in VB118 cells, read-out: SKBR3 (antiproliferative activity, Table 6)): 0.36 nM
pIC50 [3, 9]: 9.33
pIC50 ([3]; Homo sapiens, K-562R, free, unconjugated, 72 hours of treatment, read-out: K562R IC50): 9.33
IC50 ([3]; Homo sapiens, K-562R, nM given only in VB118 cells, read-out: K562R (antiproliferative activity, Table 6)): 0.47 nM
pIC50 ([3]; Homo sapiens, K-562R, resistant cancer cells, MDR profile, read-out: K562R (PgP+) IC50): 9.33
pIC50 (NCI-N87 (gastric tumour); [10]): 9.52
pIC50 (NCI-N87 (gastric tumour); Homo sapiens, NCI-N87, free, unconjugated, 72 hours of treatment, read-out: NIC-N87 IC50): 9.52
IC50 (NCI-N87 (gastric tumour); Homo sapiens, NCI-N87, nM given only in VB118 cells, read-out: NCI-N87 (antiproliferative activity, Table 6)): 0.3 nM
pIC50 (MCF7 (breast tumour); Homo sapiens, MCF7, free, 72 hours of treatment, read-out: MCF7 CI50): 9.77
pIC50 [4, 11]: 9.14
pIC50 ([4]; free, unconjugated, 72 hours of treatment, read-out: A549 IC50): 9.14
pIC50 ([6]; Homo sapiens, MDA-MB-231, free, 72 hours of treatment, read-out: MDA-MB231 CI50): 9.47
pIC50 (SKOV3 (ovarian tumour); [12]): 9.36
pIC50 (SKOV3 (ovarian tumour); Homo sapiens, SK-OV-3, free, unconjugated, 72 hours of treatment, read-out: SKOV3 IC50): 9.36
IC50 (SKOV3 (ovarian tumour); Homo sapiens, SK-OV-3, nM given only in VB118 cells, read-out: SKOV-3 (antiproliferative activity, Table 6)): 0.44 nM
pIC50 [5, 13]: 9.64
pIC50 ([5]; free, unconjugated, 72 hours of treatment, read-out: HCT116 IC50): 9.64
SMILES: COc1ccc(N(C)c2cc(C#N)nc3ccccc23)cc1N [ICQN-1, 4-((3-amino-4-methoxyphenyl)(methyl)amino) quinoline-2-carbonitrile]
IC50 Ratio ICQN1/MMAE, Mia-Paca-2 [1, 14]: 6
Ratio of activity 13b vs ICQN-1, Mia-Paca2 ([1]; ratio versus compound 13b): 2
Ratio of activity 13b vs ICQN-1, SKBr3 ([2]; ratio versus compound 13b): 6
Ratio of activity 13b vs ICQN-1, K562R ([3]; ratio versus compound 13b): 8
Ratio vs ICQO-1, K562R (PgP+) [3, 15]: 4.2
Ratio vs MMAE, K562R (PgP+) [3, 15]: 74
IC50 Ratio ICQN1/MMAE, NCI-N87 (NCI-N87 (gastric tumour); [14]): 22
Ratio of activity 13b vs ICQN-1, NCI-N87 (NCI-N87 (gastric tumour); ratio versus compound 13b): 15
IC50 Ratio ICQN1/MMAE, MCF7 (MCF7 (breast tumour); ratio versus MMAE): 3
Potency ratio of ICQN-1 vs MMAE (MMAE IC50 / ICQN-1 IC50), A549 [4, 14]: 6
Ratio of activity 13b vs ICQN-1, A549 ([4]; ratio versus compound 13b): 1
IC50 Ratio ICQN1/MMAE, MDA-MB231 ([6]; ratio versus MMAE): 4
Ratio of activity 13b vs ICQN-1, SKOV3 (SKOV3 (ovarian tumour); ratio versus compound 13b): 3
IC50 ratio ICQN-1 vs ICQO-1, SKOV-3 (SKOV3 (ovarian tumour); [16]): 3
IC50 ratio MMAE/ICQN-1 (fold potency of ICQN-1 over MMAE), HCT116 [5, 14]: 7
Ratio of activity 13b vs ICQN-1, HCT116 ([5]; ratio versus compound 13b): ~10
IC50 ratio ICQN-1 vs ICQO-1, HCT-116 [5, 16]: 44
